“Also recorded” adds a separate entry of the source.
B1: Gr-CLE-4-C: G. rostochiensis CLE gene of class Gr-CLE-4 with a single CLE motif, cDNA SEQ ID NO: 5 (nucleic acid, listed as Globodera rostochiensis)
DNA: ATCATAATTTCCAAAATCCCAATAAAAGCTTCCTCAATAAAGTAAATATGGCCACGAACACAATGCTTTGCCTGTTTGTTATAAGCGTTGTTCTCGCTCTCGCATTTGCTACGAATAAAAAGGGTGATGAAGAACCGGAGAACCATTCGACCGGCATTTTTGGAAAGGTCGGACGAGTTGTGACCGTGGCACTTGCGATGTCGTCTCGTCTGGGAGGGGCTGACGCAACCCGAGGAGGTGGAGCTGTATATGGAGGAAACTTGAAATCCAATCAATTGCCAAACAACAATTGGATGGCGCCACCTCCTCCAATGGCAATAAGAAGTGCCAAAGTCTATGATTCGAAACATTCTCCTGCTGAATATCTTAAAAAATTTGCTCAAGACTTTCGCCGAAAAACCGGCATGCACTCCCAGCGGCATCACGAAGAAACAACACTGGAACAGGAGAAGCGTGTAGCGGGAGCTGGTCCCGACCCAATACATCACTGATGCTCTTATTCACAATGCTAAAATATCTGTAGACTATAGATAAATTGCTAGCAACAG

Legend:
Type in all cases: in vivo
[1] = system: Arabidopsis (Columbia-0) roots; test: in vitro root assay with synthetic CLE peptides on Arabidopsis roots; conditions: 10 μM peptide in assay medium, compared with no peptide or Ag-16p
Text: (§1) Mounting evidence supports that the conserved CLE motif represents the major functional domain of plant CLE proteins. Gr-CLE genes encode four different 12-aa CLE motifs (FIG. 1A). To examine the functional sufficiency of these nematode CLE motifs, we conducted in vitro root assays (Fiers et al. 2005) using synthetic dodecapeptides (GrCLE1-1-12p, GrCLE4-1-12p, GrCLE4-2-12p, and GrCLE4-3-12p) corresponding to the four CLE motifs of Gr-CLE proteins. A 16-aa peptide (Ag-16p) (Fiers et al. 2005) corresponding to the C-terminus of AGAMOUS that has no similarity with plant CLE motifs and a 12-aa CLV3 peptide (CLV3-12p) were used as negative and positive controls, respectively. In addition, several peptides, including a mutated GrCLE1-1 dodecapeptide (GrCLE1-1m-12p, with a Gly-to-Ala conversion as in clv3-1 and clv3-5 mutants), a 14-aa GrCLE1-1 peptide (GrCLE1-1-14p, with one additional N-terminal and one additional C-terminal residue compared to Gr-CLE1-1-12p), and three 13-aa peptides of GrCLE4-1-13p, GrCLE4-2-13p, and GrCLE4-3-13p (all contained an extra N-terminal lysine residue compared to the corresponding dodecapeptides), were synthesized and used in the in vitro root assays.
(§2) Peptides with a purity of >70% were synthesized (Sigma-Aldrich Corp., St. Louis, Mo., U.S.A) and dissolved in filter-sterilized 50 mM sodium phosphate buffer. Three Gr-CLE-1 related peptides were synthesized: GrCLE1-1-12p (12 aa, RVIPGGPDPLHN; SEQ ID NO: 12), GrCLE1-1m-12p (12 aa, RVIPGAPDPLHN; SEQ ID NO: 13, with a G-to-A conversion at position 6), and GrCLE1-1-14p (14 aa, KRVIPGGPDPLHNR; SEQ ID NO: 14). Six Gr-CLE-4 related peptides were synthesized: GrCLE4-1-12p (12 aa, RVAGAGPDPIHH; SEQ ID NO: 15), GrCLE4-1-13p (13 aa, KRVAGAGPDPIHH; SEQ ID NO: 16), GrCLE4-2-12p (12 aa, RAVPAGPDPKHH; SEQ ID NO: 17), GrCLE4-2-13p (13 aa, KRAVPAGPDPKHH; SEQ ID NO: 18), GrCLE4-3-12p (12 aa, RGAPAGPDP IHH; SEQ ID NO: 19), and GrCLE4-3-13p (13 aa, KRGAPAGPDPIHH; SEQ ID NO: 20). Positive and negative control peptides included CLV3-12p (12 aa, RTVPSGPDPLHH; SEQ ID NO: 21) and Ag-16p (16 aa, APNNHHYSSAGRQDQT; SEQ ID NO: 22) (Fiers et al., 2005).
(§3) For peptide treatments, seeds of wild-type Arabidopsis (Columbia-0) and potato, nonhost and host of G. rostochiensis, respectively, were surface-sterilized and plated on square plates (8-12 seeds per plate) containing the assay medium (Fiers et al. 2005, supra) with 10 μM of each peptide. Assay plates were placed vertically in a growth chamber and cultured at 23° C. for 16 h of light and 8 h of dark. The root length was measured from the base of the hypocotyl to the tip of the primary root at several time points after plating. Two independent experiments were conducted.

[2] = system: potato roots; test: in vitro root assay with synthetic CLE peptides on potato roots; conditions: 10 μM peptide in assay medium, compared with no peptide or Ag-16p
Text: as §1, §2, §3

[3] = system: Arabidopsis (Columbia-0) root apical meristem; test: microscopic examination of root apical meristem of peptide treated Arabidopsis roots; conditions: Arabidopsis primary roots 8 days after peptide treatment
Text: (§4) To examine root meristems, primary root tips were excised from peptide treated Arabidopsis seedlings or from transgenic potato hairy roots and immediately mounted in water onto a glass slide. Roots were examined under an Olympus BX-50 microscope equipped with Nomarski optics and images were captured using a QImaging Retiga EXi digital CCD camera (QImaging, Surrey, BC, Canada). The root apical meristem (RAM) regions of individual primary roots that covered the distance from the position around the quiescent center to the position where elongated root cells immediately follow cytoplasm-dense meristematic cells were measured microscopically. The collected data were analyzed using the MetaMorph imaging analysis software (Universal Imaging Corporation, Downingtown, Pa., U.S.A.)

[4] = system: Arabidopsis clv3-2 mutant plants; test: complementation of clv3-2 mutant by Gr-CLE genes under CLV3 promoter; conditions: gene under control of CLV3 promoter in clv3-2
Text: Gr-CLE proteins can completely or partially replace CLV3 activity within meristems. For the complementation study, Gr-CLE genes were subcloned into pBU14 under the control of the CLV3 promoter (Brand et al. 2002. Plant Physiol. 129:565-575). To generate the PCLV3:Gr-CLE-1 construct, primer pair of CLE1-spF and CLE1-TGAxbaR was used. To generate PCLV3:Gr-CLE-4-B and PCLV3:Gr-CLE-4-C constructs, primer pair of CLE4B1-spF and 4B1-TGAxbaR was used. Each amplified PCR product was cloned into pBU14 at BamHI and XbaI sites. Arabidopsis clv3-2 mutant plants were transformed with A. tumefaciens GV3101 harboring each of the above constructs.
All transformants were selected on ½×MS medium containing 50 μg/mL of kanamycin (Sigma-Aldrich) (for the pMD1 vector) or 30 μg/mL of glufosinate ammonium (Fisher, Pittsburgh, Pa., U.S.A.) (for the pBU14 vector) and transgenic Arabidopsis plants were then cultivated at 24° C. for 16 h of light and 8 h of dark in a growth room. For measuring the root growth rate, transgenic plants expressing individual Gr-CLE genes or the empty vector were first selected on kanamycin containing medium for five days, then transferred to ½×MS plates and cultured vertically at 24° C. for 16 h of light and 8 h of dark in a growth chamber (Percival, Perry, Iowa, U.S.A.).
Gr-CLE-1, Gr-CLE-4-B, and Gr-CLE-4-C were the most representative Gr-CLE genes identified. To determine if these genes could replace CLV3 activity in the shoot and floral meristems, the full-length sequences of these three genes were cloned under the control of the CLV3 promoter and introduced into Arabidopsis clv3-2 mutant plants. clv mutants have enlarged shoot and floral meristems that lead to shoot fasciation and formation of extra floral organs including an increase in carpel number (Clark et al. 1993, 1995; Kayes and Clark 1998). For example, flowers of a clv3-2 mutant usually have six to seven carpels in the fourth whorl (Clark et al. 1995), whereas wild-type flowers have only two carpels in the fourth whole. Carpel number is a sensitive measurement for meristem size (Clark et al. 1993; Ni and Clark 2006). Multiple independent transgenic lines for each transgene were obtained and analyzed (Table 2).

[5] = system: potato hairy roots; test: overexpression of Gr-CLE genes in potato hairy roots; conditions: measured at 4, 6, 8 and 10 days after dissecting; compared with vector control
Text: as §4
A. rhizogenes strain 15834 was transformed with individual transgene constructs of interest and used for the generation of potato hairy roots as described previously (Wang et al. 2007. Mol. Plant Pathol. 8:423-436) with some modifications. Potato stem pieces from tissue cultures were incubated with the transformed A. rhizogenes cell suspension for 10 mins, then transferred onto the callus induction medium containing 1×MS salts (Sigma-Aldrich), 26.7 μM Glycine, 4 μM Nicotinic Acid, 2.4 μM Pyridoxine HCL (Sigma-Aldrich), 1.2 μM Thiamine HCL (Sigma-Aldrich), 0.5 μM Folic Acid, 0.2 μM d-biotin (Sigma-Aldrich), 0.01% Myo-inositol (Acros, Morris Plains, N.J., U.S.A.), 3% sucrose, 0.001% 6-BAP (Sigma-Aldrich), 0.002% NAA (Sigma-Aldrich), and 1% agar and cultivated for four days at 24° C. without light. The infected stem pieces were then cultured on the propagation medium containing 1×MS salts, 1.2 mM NaH2PO4, 0.01% Myo-inositol, 0.1% Thiamine HCl, 3% sucrose, 1% agar, 50 μg/mL of kanamycin, and 238 μg/mL of timentin (GlaxoSmithKline). Timentin was used to inhibit the growth of A. rhizogenes 15834 and kanamycin was added to select for transformed roots. Approximately 12-15 days after root emergence, 1 cm-long root tips were dissected and cultured on vertical plates containing the propagation medium with 119 μg/mL of timentin and the root growth rate was measured at different time points.

Row | Molecule | suppression of root growth (length of main root) [1] | suppression of root growth (length of main root) ([1]; listed as GrCLE1-1) | suppression of root growth (length of main root) [2] | root meristem consumption (size of root apical meristem) [3] | average number of carpels in flowers and siliques [4] | rescue of clv3-2 meristem defects [4] | length of primary roots of transgenic potato hairy root lines [5]
1 | RVIPGGPDPLHN (listed as Globodera rostochiensis) [GrCLE1-1-12p, synthetic 12 aa dodecapeptide of the GrCLE1-1 CLE motif] | suppressed root growth; also recorded: comparable level of suppression as CLV3-12p; also recorded: significantly shorter | higher degree of root suppression | suppressed root growth; also recorded: comparable level of suppression as CLV3-12p; also recorded: significantly shorter | more severe; also recorded: significantly less |  |  | 
2 | RTVPSGPDPLHH (listed as Globodera rostochiensis) [CLV3-12p, 12-aa CLV3 peptide, positive control, reference compound] | severely suppressed root growth |  | severely suppressed root growth | showed a phenotype of root meristem consumption |  |  | 
3 | B1 |  |  |  |  | three to four | partial rescue | short root phenotype

From US8569578B1, “Generating transgenic potatoes with novel resistance to potato cyst nematodes by silencing nematode parasitism genes of CLE -1 and CLE-4s” (The United States of America, as represented by the …, priority 2009, dated 2013)
